According to patent US12600714B2, “Substituted pyrazinecarboxamide compounds for treating diseases related to EGFR mutation” (WIGEN BIOMEDICINE TECHNOLOGY (SHANGHAI) CO., LTD., priority 2020, dated 2026):

System: EGFR (del19/T790M/C797S)
Test: HTRF inhibitory activity assay against EGFR (del19/T790M/C797S) enzyme
Assay type: biochemical
Procedure: Inhibitory Activity Assay of the Compounds Disclosed Herein Against EGFR (del19/T790M/C797S), EGFR (L858R/T790M/C797S) or EGFR (WT) Enzymes
The inhibitory effects of the compounds against EGFR (del19/T790M/C797S), EGFR (L858R/T790M/C797S) or EGFR (WT) enzyme activity was determined by using HTRF. The procedures are as follows:
The WT or mutant EGFR proteins were incubated with a serially diluted compounds at 28° C. for 10 min followed by addition of biotin-labeled general tyrosine kinase (TK) substrate and ATP. The mixture was incubated at room temperature for 40 min for reaction. After the termination of the reaction, an Eu3+-Cryptate-labeled antibody against TK and streptavidin-XL665 were added and the mixture was incubated at room temperature for 60 min. The luminescences at 615 nm and 665 nm were detected and the ratio of 665/615 was calculated to quantify the level of TK substrate phosphorylation. Inhibition % and IC50 of the compounds were calculated relative to the control group.

Q: For `CN1CCN(C2CCN(c3ccc(Nc4nc(NC5CCOCC5)c(-c5cnn(C)c5)nc4C(N)=O)cc3)CC2)CC1` [compound 40], which “EGFR (del19/T790M/C797S) inhibition (%) (0.3 nM compound)” value (“EGFR (del19/T790M/C797S) inhibition (%)” below) is on record?
A: + (+ indicates an inhibition less than or equal to 20%)

Q: Which “EGFR (del19/T790M/C797S) inhibition (%)” value does the source give for `COc1ccccc1-c1nc(C(N)=O)c(Nc2ccc(N3CCC(N4CCN(C)CC4)CC3)cc2)nc1NC1CCOCC1` [compound 42] here?
A: + (+ indicates an inhibition less than or equal to 20%)

Q: With `CN1CCN(C2CCN(c3ccc(Nc4nc(NC5CCOCC5)c(-c5cccc(O)c5)nc4C(N)=O)cc3)CC2)CC1` [compound 43] as the compound, how does the “EGFR (del19/T790M/C797S) inhibition (%)” value read?
A: + (+ indicates an inhibition less than or equal to 20%)

Q: `CN1CCN(C2CCN(c3ccc(Nc4nc(NC5CCOCC5)c(-c5cccc(S(C)(=O)=O)c5)nc4C(N)=O)cc3)CC2)CC1` [compound 44] was tested. Which “EGFR (del19/T790M/C797S) inhibition (%)” value did it give?
A: + (+ indicates an inhibition less than or equal to 20%)

Q: `COc1ccc(-c2nc(C(N)=O)c(Nc3ccc(N4CCC(N5CCN(C)CC5)CC4)cc3)nc2NC2CCOCC2)cc1` [compound 45] was tested. Which “EGFR (del19/T790M/C797S) inhibition (%)” value did it give?
A: + (+ indicates an inhibition less than or equal to 20%)

Q: `CN1CCN(C2CCN(c3ccc(Nc4nc(NC5CCOCC5)c(-c5ccc(S(C)(=O)=O)cc5)nc4C(N)=O)cc3)CC2)CC1` [compound 46] was tested. Which “EGFR (del19/T790M/C797S) inhibition (%)” value did it give?
A: + (+ indicates an inhibition less than or equal to 20%)

Q: Which “EGFR (del19/T790M/C797S) inhibition (%)” value does the source give for `CN1CCN(C2CCN(c3ccc(Nc4nc(NC5CCOCC5)c(-c5cccc(C#N)c5)nc4C(N)=O)cc3)CC2)CC1` [compound 47] here?
A: + (+ indicates an inhibition less than or equal to 20%)

Q: `CN1CCN(C2CCN(c3ccc(Nc4nc(NC5CCOCC5)c(-c5ccn(C)n5)nc4C(N)=O)cc3)CC2)CC1` [compound 49] was tested. Which “EGFR (del19/T790M/C797S) inhibition (%)” value did it give?
A: + (+ indicates an inhibition less than or equal to 20%)

Q: Which “EGFR (del19/T790M/C797S) inhibition (%)” value does the source give for `CN1CCN(C2CCN(c3ccc(Nc4nc(NC5CCOCC5)c(-c5ccnn5C)nc4C(N)=O)cc3)CC2)CC1` [compound 50] here?
A: + (+ indicates an inhibition less than or equal to 20%)

Q: How did the “EGFR (del19/T790M/C797S) inhibition (%)” value turn out when `COc1cccc(-c2nc(C(N)=O)c(Nc3ccc(N4CCC(N5CCN(C)CC5)CC4)cc3)nc2NC2CCOCC2)c1` [compound 51] was run?
A: + (+ indicates an inhibition less than or equal to 20%)

Q: How did the “EGFR (del19/T790M/C797S) inhibition (%)” value turn out when `CN1CCN(C2CCN(c3ccc(Nc4nc(NC5CCOCC5)c(-c5ccc(C#N)cc5)nc4C(N)=O)cc3)CC2)CC1` [compound 53] was run?
A: + (+ indicates an inhibition less than or equal to 20%)

Q: Which “EGFR (del19/T790M/C797S) inhibition (%)” value does the source give for `Cc1cnccc1-c1nc(C(N)=O)c(Nc2ccc(N3CCC(N4CCN(C)CC4)CC3)cc2)nc1NC1CCOCC1` [compound 56] here?
A: + (+ indicates an inhibition less than or equal to 20%)

Q: `CN1CCN(C2CCN(c3ccc(Nc4nc(NC5CCOCC5)c(-c5cccc(Cl)c5)nc4C(N)=O)cc3)CC2)CC1` [compound 61] was tested. Which “EGFR (del19/T790M/C797S) inhibition (%)” value did it give?
A: ++ (++ indicates an inhibition from 20% to 50%)

Q: How did the “EGFR (del19/T790M/C797S) inhibition (%)” value turn out when `CN1CCN(C2CCN(c3ccc(Nc4nc(NC5CCOCC5)c(-c5ccccc5F)nc4C(N)=O)cc3)CC2)CC1` [compound 62] was run?
A: + (+ indicates an inhibition less than or equal to 20%)

Q: With `CN1CCN(C2CCN(c3ccc(Nc4nc(NC5CCOCC5)c(-c5ccccc5Cl)nc4C(N)=O)cc3)CC2)CC1` [compound 63] as the compound, how does the “EGFR (del19/T790M/C797S) inhibition (%)” value read?
A: + (+ indicates an inhibition less than or equal to 20%)

Q: With `CN1CCN(C2CCN(c3ccc(Nc4nc(NC5CCOCC5)c(-c5ccc(F)cc5)nc4C(N)=O)cc3)CC2)CC1` [compound 64] as the compound, how does the “EGFR (del19/T790M/C797S) inhibition (%)” value read?
A: + (+ indicates an inhibition less than or equal to 20%)

Q: `CN1CCN(C2CCN(c3ccc(Nc4nc(NC5CCOCC5)c(-c5ccc(Cl)cc5)nc4C(N)=O)cc3)CC2)CC1` [compound 65] was tested. Which “EGFR (del19/T790M/C797S) inhibition (%)” value did it give?
A: ++ (++ indicates an inhibition from 20% to 50%)

Q: With `CN1CCN(C2CCN(c3ccc(Nc4nc(N[C@@H]5CCOC5)c(-c5ccccc5)nc4C(N)=O)cc3)CC2)CC1` [compound 66] as the compound, how does the “EGFR (del19/T790M/C797S) inhibition (%)” value read?
A: + (+ indicates an inhibition less than or equal to 20%)

Q: How did the “EGFR (del19/T790M/C797S) inhibition (%)” value turn out when `COc1cc(-c2nc(C(N)=O)c(Nc3ccc(N4CCC(N5CCN(C)CC5)CC4)cc3)nc2NC2CCOCC2)ccn1` [compound 67] was run?
A: + (+ indicates an inhibition less than or equal to 20%)

Q: How did the “EGFR (del19/T790M/C797S) inhibition (%)” value turn out when `CN1CCN(C2CCN(c3ccc(Nc4nc(NC5CCOCC5)c(C5=CCNC5)nc4C(N)=O)cc3)CC2)CC1` [compound 68] was run?
A: + (+ indicates an inhibition less than or equal to 20%)

Q: How did the “EGFR (del19/T790M/C797S) inhibition (%)” value turn out when `CN1CCN(C2CCN(c3ccc(Nc4nc(N[C@H]5CCOC5)c(-c5ccccc5)nc4C(N)=O)cc3)CC2)CC1` [compound 70] was run?
A: + (+ indicates an inhibition less than or equal to 20%)

Q: With `CN1CCN(C2CCN(c3ccc(Nc4nc(NC5CCOCC5)c(-c5ccccc5CO)nc4C(N)=O)cc3)CC2)CC1` [compound 71] as the compound, how does the “EGFR (del19/T790M/C797S) inhibition (%)” value read?
A: + (+ indicates an inhibition less than or equal to 20%)

Q: `CN1CCN(C2CCN(c3ccc(Nc4nc(NC5CCOCC5)c(-c5cncnc5)nc4C(N)=O)cc3)CC2)CC1` [compound 72] was tested. Which “EGFR (del19/T790M/C797S) inhibition (%)” value did it give?
A: + (+ indicates an inhibition less than or equal to 20%)

Q: Which “EGFR (del19/T790M/C797S) inhibition (%)” value does the source give for `CN1CCN(C2CCN(c3ccc(Nc4nc(NC5CCOCC5)c(-c5ccccc5C(F)F)nc4C(N)=O)cc3)CC2)CC1` [compound 82] here?
A: + (+ indicates an inhibition less than or equal to 20%)

Q: How did the “EGFR (del19/T790M/C797S) inhibition (%)” value turn out when `CN1CCN(C2CCN(c3ccc(Nc4nc(NC5CCOCC5)c(-c5cccc(NS(C)(=O)=O)c5)nc4C(N)=O)cc3)CC2)CC1` [compound 90] was run?
A: + (+ indicates an inhibition less than or equal to 20%)

Q: Which “EGFR (del19/T790M/C797S) inhibition (%)” value does the source give for `CN1CCN(C2CCN(c3ccc(Nc4nc(NC5CCOCC5)c(-c5ccoc5)nc4C(N)=O)cc3)CC2)CC1` [compound 91] here?
A: ++ (++ indicates an inhibition from 20% to 50%)

Q: With `CN1CCN(C2CCN(c3ccc(Nc4nc(NC5CCOCC5)c(-c5cccc(N)c5)nc4C(N)=O)cc3)CC2)CC1` [compound 92] as the compound, how does the “EGFR (del19/T790M/C797S) inhibition (%)” value read?
A: ++ (++ indicates an inhibition from 20% to 50%)

Q: For `CN1CCN(C2CCN(c3ccc(Nc4nc(NC5CCOCC5)c(-c5ccsc5)nc4C(N)=O)cc3)CC2)CC1` [compound 93], which “EGFR (del19/T790M/C797S) inhibition (%)” value is on record?
A: ++ (++ indicates an inhibition from 20% to 50%)

Q: For `CN1CCN(C2CCN(c3ccc(Nc4nc(NC5CCOCC5)c(-c5ccc(N)cc5)nc4C(N)=O)cc3)CC2)CC1` [compound 95], which “EGFR (del19/T790M/C797S) inhibition (%)” value is on record?
A: ++ (++ indicates an inhibition from 20% to 50%)

Q: For `CN1CCN(C2CCN(c3ccc(Nc4nc(NC5CCOCC5)c(-c5ccccc5N)nc4C(N)=O)cc3)CC2)CC1` [compound 98], which “EGFR (del19/T790M/C797S) inhibition (%)” value is on record?
A: + (+ indicates an inhibition less than or equal to 20%)

Q: How did the “EGFR (del19/T790M/C797S) inhibition (%)” value turn out when `CN1CCN(C2CCN(c3ccc(Nc4nc(NC5CCOCC5)c(-c5ccccc5O)nc4C(N)=O)cc3)CC2)CC1` [compound 99] was run?
A: + (+ indicates an inhibition less than or equal to 20%)

Q: How did the “EGFR (del19/T790M/C797S) inhibition (%)” value turn out when `CC(=O)Nc1cccc(-c2nc(C(N)=O)c(Nc3ccc(N4CCC(N5CCN(C)CC5)CC4)cc3)nc2NC2CCOCC2)c1` [compound 100] was run?
A: + (+ indicates an inhibition less than or equal to 20%)

Q: How did the “EGFR (del19/T790M/C797S) inhibition (%)” value turn out when `CN1CCN(C2CCN(c3ccc(Nc4nc(NC5CCOCC5)c(-c5ccc(C(F)F)cc5)nc4C(N)=O)cc3)CC2)CC1` [compound 101] was run?
A: + (+ indicates an inhibition less than or equal to 20%)
